system: apyrase; assay: Screen for apyrase inhibitors (Method 1, in vitro phosphate-release absorbance assay); format: biochemical; settings: inhibitor conc at 1 mM stock, 1 hr room temperature, absorbance 630 nm; rounded average of two assay results
In short: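 Phosphate-release colorimetric assay (Windsor method) in 60 mM Hepes, 3 mM MgCl2, 3 mM CaCl2, 3 mM ATP, pH 6.5, with compound or DMSO control added. Released phosphate developed with ammonium molybdate and ascorbic acid/TCA, then stopped with citrate/acetic acid.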

Q: `O=C(Nc1ccc2c(c1)OCCCO2)c1cccc(S(=O)(=O)Nc2ccc3c(c2)OCCO3)c1` [I-573, N-(3,4-dihydro-2H-benzo[b][1,4]dioxepin-7-yl)-3-(N-(2,3-dihydrobenzo[b][1,4]dioxin-6-yl)sulfamoyl)benzamide] was tested. Which “% Inhibition of Apyrase” value did it give?
A: 50%

Q: With `Cc1ccc2c(c1)CCCN2C(=O)c1cccc(S(=O)(=O)Nc2ccccc2F)c1` [I-574, N-(2-fluorophenyl)-3-(6-methyl-1,2,3,4-tetrahydroquinoline-1-carbonyl)benzenesulfonamide] as the compound, how does the “% Inhibition of Apyrase” value read?
A: 49%

Q: With `COc1ccc(NC(=O)c2cccc(S(=O)(=O)N3CCc4ccccc43)c2)c(OC)c1` [I-575, N-(2,4-dimethoxyphenyl)-3-(indolin-1-ylsulfonyl)benzamide] as the compound, how does the “% Inhibition of Apyrase” value read?
A: 49%

Q: `O=C(c1cccc(S(=O)(=O)Nc2ccc(F)cc2)c1)N1CCc2ccccc21` [I-576, N-(4-fluorophenyl)-3-(indoline-1-carbonyl)benzenesulfonamide] was tested. Which “% Inhibition of Apyrase” value did it give?
A: 49%

Q: How did the “% Inhibition of Apyrase” value turn out when `COc1ccc(S(=O)(=O)N2CCc3ccccc32)cc1C(=O)Nc1ccc2c(c1)OCCO2` [I-577, N-(2,3-dihydrobenzo[b][1,4]dioxin-6-yl)-5-(indolin-1-ylsulfonyl)-2-methoxybenzamide] was run?
A: 48%

Q: How did the “% Inhibition of Apyrase” value turn out when `COc1ccc(S(=O)(=O)N2CCCCC2)cc1NC(=O)c1cccc(S(=O)(=O)Nc2ccccc2OC)c1` [I-578, N-(2-methoxy-5-(piperidin-1-ylsulfonyl)phenyl)-3-(N-(2-methoxyphenyl)sulfamoyl)benzamide] was run?
A: 48%

Q: For `CC1Cc2ccccc2N1C(=O)c1cccc(S(=O)(=O)Nc2cc(C(F)(F)F)ccc2Cl)c1` (stereo not drawn) [I-579, N-(2-chloro-5-(trifluoromethyl)phenyl)-3-(2-methylindoline-1-carbonyl)benzenesulfonamide], which “% Inhibition of Apyrase” value is on record?
A: 48%

Q: Which “% Inhibition of Apyrase” value does the source give for `COC(=O)c1cccc2c1CCCN2C(=O)c1cccc(S(=O)(=O)N(C)c2ccccc2)c1` [I-580, methyl 1-(3-(N-methyl-N-phenylsulfamoyl)benzoyl)-1,2,3,4-tetrahydroquinoline-5-carboxylate] here?
A: 47%

Q: `CCOc1ccc(NC(=O)c2cc(S(=O)(=O)N3CCc4ccccc43)ccc2OC)cc1` [I-581, N-(4-ethoxyphenyl)-5-(indolin-1-ylsulfonyl)-2-methoxybenzamide] was tested. Which “% Inhibition of Apyrase” value did it give?
A: 47%

Q: Which “% Inhibition of Apyrase” value does the source give for `CC1Cc2ccccc2N1S(=O)(=O)c1cccc(C(=O)Nc2ccc3c(c2)OCCCO3)c1` (stereo not drawn) [I-582, N-(3,4-dihydro-2H-benzo[b][1,4]dioxepin-7-yl)-3-((2-methylindolin-1-yl)sulfonyl)benzamide] here?
A: 47%

Q: `Cc1nc2cc(NC(=O)c3cccc(S(=O)(=O)N4c5ccccc5CC4C)c3)ccc2o1` (stereo not drawn) [I-583, N-(2-methylbenzo[d]oxazol-5-yl)-3-((2-methylindolin-1-yl)sulfonyl)benzamide] was tested. Which “% Inhibition of Apyrase” value did it give?
A: 47%

Q: How did the “% Inhibition of Apyrase” value turn out when `CC(=O)c1cc2c(cc1NC(=O)c1cccc(S(=O)(=O)N3CCc4ccccc43)c1)OCO2` [I-584, N-(6-acetylbenzo[d][1,3]dioxol-5-yl)-3-(indolin-1-ylsulfonyl)benzamide] was run?
A: 46%

Q: `O=C(Nc1ccccc1N1CCOCC1)c1cccc(S(=O)(=O)N2CCc3ccccc32)c1` [I-585, 3-(indolin-1-ylsulfonyl)-N-(2-morpholinophenyl)benzamide] was tested. Which “% Inhibition of Apyrase” value did it give?
A: 45%

Q: With `CCOc1ccc(NC(=O)c2cccc(S(=O)(=O)Nc3ccc4c(c3)OCO4)c2)cc1OC` [I-586, 3-(N-(benzo[d][1,3]dioxol-5-yl)sulfamoyl)-N-(4-ethoxy-3-methoxyphenyl)benzamide] as the compound, how does the “% Inhibition of Apyrase” value read?
A: 44%

Q: With `Cc1nc2cc(NC(=O)c3cccc(S(=O)(=O)N4CCc5ccccc54)c3)ccc2o1` [I-587, 3-(indolin-1-ylsulfonyl)-N-(2-methylbenzo[d]oxazol-5-yl)benzamide] as the compound, how does the “% Inhibition of Apyrase” value read?
A: 44%

Q: Which “% Inhibition of Apyrase” value does the source give for `COc1ccc(NC(=O)c2ccc(Cl)c(S(=O)(=O)N3CCc4ccccc43)c2)cc1OC` [I-588, 4-chloro-N-(3,4-dimethoxyphenyl)-3-(indolin-1-ylsulfonyl)benzamide] here?
A: 43%

Q: With `CC(=O)Nc1cccc(NC(=O)c2cccc(S(=O)(=O)N3c4ccccc4CC3C)c2)c1` (stereo not drawn) [I-589, N-(3-acetamidophenyl)-3-((2-methylindolin-1-yl)sulfonyl)benzamide] as the compound, how does the “% Inhibition of Apyrase” value read?
A: 42%

Q: For `COc1ccc(NC(=O)c2cccc(S(=O)(=O)Nc3ccc4c(c3)OCO4)c2)c(OC)c1` [I-590, 3-(N-(benzo[d][1,3]dioxol-5-yl)sulfamoyl)-N-(2,4-dimethoxyphenyl)benzamide], which “% Inhibition of Apyrase” value is on record?
A: 42%

Q: For `Cc1ccc(N(C)S(=O)(=O)c2cccc(C(=O)Nc3ccc(C)cc3C)c2)cc1` [I-591, N-(2,4-dimethylphenyl)-3-(N-methyl-N-(p-tolyl)sulfamoyl)benzamide], which “% Inhibition of Apyrase” value is on record?
A: 41%

Q: For `Cc1nc2ccc(NC(=O)c3cccc(S(=O)(=O)N4CCc5ccccc54)c3)cc2s1` [I-592, 3-(indolin-1-ylsulfonyl)-N-(2-methylbenzo[d]thiazol-6-yl)benzamide], which “% Inhibition of Apyrase” value is on record?
A: 41%

Q: With `COc1ccc(S(=O)(=O)N2CCc3ccccc32)cc1C(=O)Nc1ccc(C)c(C)c1` [I-593, N-(3,4-dimethylphenyl)-5-(indolin-1-ylsulfonyl)-2-methoxybenzamide] as the compound, how does the “% Inhibition of Apyrase” value read?
A: 38%

Q: For `CCNC(=O)c1cccc(NC(=O)c2cccc(S(=O)(=O)Nc3cccc(C(F)(F)F)c3)c2)c1` [I-594, N-ethyl-3-(3-(N-(3-(trifluoromethyl)phenyl)sulfamoyl)benzamido) benzamide], which “% Inhibition of Apyrase” value is on record?
A: 36%

Q: `O=C(Nc1cccc2ncccc12)c1cccc(S(=O)(=O)N2CCc3ccccc32)c1` [I-596, 3-(indolin-1-ylsulfonyl)-N-(quinolin-5-yl)benzamide] was tested. Which “% Inhibition of Apyrase” value did it give?
A: 35%

Q: How did the “% Inhibition of Apyrase” value turn out when `COc1ccc(S(=O)(=O)N2CCc3ccccc32)cc1C(=O)Nc1ccc(OC(F)(F)F)cc1` [I-597, 5-(indolin-1-ylsulfonyl)-2-methoxy-N-(4-(trifluoromethoxy)phenyl)benzamide] was run?
A: 35%

Q: With `O=C(Nc1ccc2[nH]c(=O)[nH]c2c1)c1cccc(S(=O)(=O)N2CCc3ccccc32)c1` [I-598, 3-(indolin-1-ylsulfonyl)-N-(2-oxo-2,3-dihydro-1H-benzo[d]imidazol-5-yl)benzamide] as the compound, how does the “% Inhibition of Apyrase” value read?
A: 31%

Q: With `COc1ccc(Cl)cc1NS(=O)(=O)c1cccc(C(=O)Nc2ccc(N(C)C)nc2)c1` [I-599, 3-(N-(5-chloro-2-methoxyphenyl)sulfamoyl)-N-(6-(dimethylamino)pyridin-3-yl)benzamide] as the compound, how does the “% Inhibition of Apyrase” value read?
A: 30%

Q: How did the “% Inhibition of Apyrase” value turn out when `O=C(Nc1ccccc1N1CCCC1=O)c1cccc(S(=O)(=O)N2CCc3ccccc32)c1` [I-600, 3-(indolin-1-ylsulfonyl)-N-(2-(2-oxopyrrolidin-1-yl)phenyl)benzamide] was run?
A: 29%

Q: How did the “% Inhibition of Apyrase” value turn out when `O=C(Nc1ccc(N2CCOCC2)cc1)c1cccc(S(=O)(=O)N2CCc3ccccc32)c1` [I-601, 3-(indolin-1-ylsulfonyl)-N-(4-morpholinophenyl)benzamide] was run?
A: 29%

Q: How did the “% Inhibition of Apyrase” value turn out when `CC1Cc2ccccc2N1S(=O)(=O)c1cccc(C(=O)Nc2cccc3ncccc23)c1` (stereo not drawn) [I-602, 3-((2-methylindolin-1-yl)sulfonyl)-N-(quinolin-5-yl)benzamide] was run?
A: 28%

Q: With `CS(=O)(=O)c1ccc2c(c1)N(C(=O)c1cccc(S(=O)(=O)N3CCc4ccccc43)c1)CCC2` [I-603, (3-(indolin-1-ylsulfonyl)phenyl)(7-(methylsulfonyl)-3,4-dihydroquinolin-1(2H)-yl)methanone] as the compound, how does the “% Inhibition of Apyrase” value read?
A: 25%
